Experimental data: ChEMBL document CHEMBL1667821, “Synthesis and galectin-binding activities of mercaptododecyl glycosides containing a terminal β-galactosyl group” (Bioorg Med Chem Lett, 2011)
Values joined by “and” are separate entries in the source; they are usually repeats but may differ in a detail not shown here. Equal entries are not always repeated. Active and inactive are the calls of the source. No cut-off for these calls is given here.

Experiments:
[1] = target: Galectin-1 (Homo sapiens) (UniProt P09382); assay: Binding affinity to human galectin-1 by surface plasmon resonance method
[2] = target: T1, Galectin-2 (Homo sapiens) (UniProt P05162); assay: Binding affinity to human galectin-2 by surface plasmon resonance method
T1 sequence (whole entry): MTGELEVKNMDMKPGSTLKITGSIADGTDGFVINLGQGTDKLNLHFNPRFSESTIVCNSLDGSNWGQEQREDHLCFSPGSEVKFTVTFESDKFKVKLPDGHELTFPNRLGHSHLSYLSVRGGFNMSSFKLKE

Galectin-3 = Galectin-3 (Homo sapiens, UniProt P17931); assay: Binding affinity to human galectin-3 by surface plasmon resonance method
[3] = target: T2, Galectin-4 (Homo sapiens) (UniProt P56470); assay: Binding affinity to human galectin-4 by surface plasmon resonance method
T2 sequence (whole entry): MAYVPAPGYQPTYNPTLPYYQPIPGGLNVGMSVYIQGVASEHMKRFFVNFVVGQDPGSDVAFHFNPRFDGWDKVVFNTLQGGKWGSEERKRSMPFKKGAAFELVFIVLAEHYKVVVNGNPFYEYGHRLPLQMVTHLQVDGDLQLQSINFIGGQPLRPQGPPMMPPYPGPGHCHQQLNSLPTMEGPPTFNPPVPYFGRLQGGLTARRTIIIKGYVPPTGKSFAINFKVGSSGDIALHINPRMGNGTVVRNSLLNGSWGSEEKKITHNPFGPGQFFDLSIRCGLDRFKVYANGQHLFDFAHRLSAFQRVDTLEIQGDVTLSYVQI

[4] = target: Galectin-7 (Homo sapiens) (UniProt P47929); assay: Binding affinity to human galectin-7 by surface plasmon resonance method
[5] = target: T3, Galectin-8 (Homo sapiens) (UniProt O00214); assay: Binding affinity to human galectin-8 by surface plasmon resonance method
T3 sequence (whole entry): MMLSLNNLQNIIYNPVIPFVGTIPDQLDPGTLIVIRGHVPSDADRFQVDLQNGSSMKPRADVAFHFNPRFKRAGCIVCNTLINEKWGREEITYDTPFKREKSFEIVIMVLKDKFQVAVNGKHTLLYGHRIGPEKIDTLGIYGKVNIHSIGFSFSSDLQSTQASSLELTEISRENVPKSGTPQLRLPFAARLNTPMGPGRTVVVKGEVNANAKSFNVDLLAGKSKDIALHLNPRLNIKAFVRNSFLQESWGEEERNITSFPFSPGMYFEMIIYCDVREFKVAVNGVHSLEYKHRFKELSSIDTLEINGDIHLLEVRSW

[6] = target: T2, Galectin-4 (Homo sapiens); assay: (§1) Binding affinity to human galectin-4 component 1 by surface plasmon resonance method
Galectin-4 [7] = target: T4, Galectin-4 (Homo sapiens, UniProt P56470); assay: as §1
T4 sequence (P56470 whole entry): T2 sequence (whole entry)

[8] = target: T2, Galectin-4 (Homo sapiens); assay: (§2) Binding affinity to human galectin-4 component 2 by surface plasmon resonance method
Galectin-4 [9] = target: T4, Galectin-4; assay: as §2
[10] = target: T3, Galectin-8 (Homo sapiens); assay: (§3) Binding affinity to human galectin-8 component 1 by surface plasmon resonance method
Galectin-8 [11] = target: T5, Galectin-8 (Homo sapiens, UniProt O00214); assay: as §3
T5 sequence (O00214 whole entry): T3 sequence (whole entry)

[12] = target: T3, Galectin-8 (Homo sapiens); assay: (§4) Binding affinity to human galectin-8 component 2 by surface plasmon resonance method
Galectin-8 [13] = target: T5, Galectin-8; assay: as §4

Galectin-1 (Homo sapiens), sequence (P09382 whole entry): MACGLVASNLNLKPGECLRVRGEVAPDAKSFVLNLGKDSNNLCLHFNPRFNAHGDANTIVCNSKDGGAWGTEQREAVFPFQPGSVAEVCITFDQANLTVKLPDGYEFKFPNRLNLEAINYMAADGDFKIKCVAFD
Galectin-7 (Homo sapiens), sequence (P47929 whole entry): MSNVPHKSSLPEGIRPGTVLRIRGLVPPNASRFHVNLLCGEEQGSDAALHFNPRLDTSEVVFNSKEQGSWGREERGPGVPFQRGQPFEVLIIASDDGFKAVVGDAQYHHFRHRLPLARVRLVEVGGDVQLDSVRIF
Galectin-3, sequence (P17931 whole entry): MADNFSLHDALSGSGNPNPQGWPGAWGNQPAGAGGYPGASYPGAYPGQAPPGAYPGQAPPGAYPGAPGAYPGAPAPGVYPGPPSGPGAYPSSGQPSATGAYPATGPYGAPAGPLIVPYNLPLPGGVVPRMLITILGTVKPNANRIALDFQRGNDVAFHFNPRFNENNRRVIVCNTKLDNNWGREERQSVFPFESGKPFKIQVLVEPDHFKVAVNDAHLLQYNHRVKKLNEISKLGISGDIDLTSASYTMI

SMILES	Activity [1] [a.u.]	Activity [2]	Activity (Galectin-3)	Ka (Galectin-3) [M⁻¹ s⁻¹]	Kd (Galectin-3) [nM]	Kdiss (Galectin-3)	Activity [3]	Activity [4]	Activity [5]	Ka [6] [M⁻¹ s⁻¹]	Kdiss [6] [×10⁻³ /s]	Kd (Galectin-4 [7])	Ka [8] [M⁻¹ s⁻¹]	Kdiss [8]	Kd (Galectin-4 [9])	Ka [10] [M⁻¹ s⁻¹]	Kdiss [10]	Kd (Galectin-8 [11])	Ka [12] [M⁻¹ s⁻¹]	Kdiss [12]	also measured
OC[C@H]1O[C@@H](O[C@H]2[C@H](O)C[C@@H](OCCCCCCCCCCCCS)O[C@@H]2CO)[C@H](O)[C@@H](O)[C@H]1O	17.8	11 a.u.	135 a.u.	1900	1430	2.72 ×10⁻³ /s	345 a.u.	inactive	74.5 a.u.	4630	1.41	300 nM and 304 nM	65200	3.78 ×10⁻³ /s	58 nM	18600	6.85 ×10⁻² /s	37 nM and 36.9 nM	35500	1.11 ×10⁻¹ /s	Kd (Galectin-8 [13]): 31 nM and 31.3 nM
OC[C@H]1OC(O[C@H]2[C@H](O)[C@@H](O)[C@H](OCCCCCCCCCCCCS)O[C@@H]2CO)[C@H](O)[C@@H](O)[C@H]1O (some centres undefined)	9.5	2 a.u.	82.3 a.u.	1760	1060	1.86 ×10⁻³ /s	457 a.u.	4.2 a.u.	368 a.u.	13000	1.76	140 nM and 136 nM	172000	1.45 ×10⁻² /s	85 nM and 84.7 nM	8970	1.39 ×10⁻⁵ /s	1.6 nM and 1.55 nM	9.61e+06	2.37 ×10⁻¹ /s	Kd (Galectin-8 [13]): 25 nM and 24.6 nM
OC[C@H]1O[C@@H](OCCCCCCCCCCCCS)[C@H](O)[C@@H](O)[C@H]1O	3.4	3.8 a.u.	inactive	–	–	–	Active	inactive	34.1 a.u.	–	–	–	–	–	–	–	–	–	–	–	–
OC[C@H]1O[C@@H](O[C@H]2C=C[C@@H](OCCCCCCCCCCCCS)O[C@@H]2CO)[C@H](O)[C@@H](O)[C@H]1O	25.1	13.4 a.u.	5.1 a.u.	–	–	–	Active	inactive	Active	–	–	–	–	–	–	–	–	–	–	–	–
CC(=O)N[C@H]1[C@@H](OCCCCCCCCCCCCS)O[C@H](CO)[C@@H](O[C@@H]2O[C@H](CO)[C@H](O)[C@H](O)[C@H]2O)[C@@H]1O	4.1	inactive	167 a.u.	5670	2200	1.25 ×10⁻² /s	462 a.u.	0.8 a.u.	163 a.u.	2330	2.92	1260 nM	111000	8.6 ×10⁻² /s	780 nM and 777 nM	9370	2.18 ×10⁻⁶ /s	0.23 nM and 0.233 nM	48700	2.39 ×10⁻³ /s	–
